The text below walks through data of US6049003A, “Azoamidine compound” (Wako Pure Chemical Industries, Ltd., priority 1998, dated 2000).

Series [1] can be described thus: 10 hours half life temperature. Format: physicochemical.
A short description of series [2]: comparison of solubility in various kinds of solvents (Table 3). Format: physicochemical.
Series [3] can be described thus: decomposition rate constant at 50° C. (Table 1). Format: physicochemical.
Series [4] can be described thus: solution polymerization of acrylamide with the azoamidine compound as initiator (Table 1). The note with it: acrylamide in water, 50° C. The protocol: Acrylamide (20 g) was dissolved in 380 g of distilled water and 0.01 g of the azoamidine compound obtained in Example 1 was added thereto as a polymerization initiator. The reaction solution was heated at 50° C. with stirring under nitrogen gas atmosphere to cause polymerization reaction. After the polymerization reaction was started, samplings of the reaction solution were conducted at predetermined intervals, and the samples were precipitated by methanol to recover the produced polymer, followed by drying. The polymerization rates at each sampling time were measured.
The same polymerization reaction as Example 4 was conducted except for using azoamidine compounds, in which an α-amino acid residue as introduced, of 2,2'-azobis(N-carboxymethyl-2-methylpropionamidine) [drawing 10] or 2,2'-azobis[N-(1-carboxyethyl)-2-methylpropionamidine] [drawing 11] as a polymerization initiator.

A short description of series [5]: emulsion polymerization of styrene with the azoamidine compound as initiator (Table 2). The note with it: for Polymerization Rate(%): sodium dodecyl sulfate. The protocol:
Distilled water (400 g), sodium dodecyl sulfate (4 g) and azoamidine compound (0.5 g) obtained in Example 1 were mixed with one another and were stirred to give a solution, and 200 g of styrene monomer was added thereto, followed by stirring to make emulsion. The resultant was subjected to polymerization reaction at 50° C. with stirring under nitrogen gas atmosphere. After the polymerization reaction was started, samplings of the reaction solution were conducted at predetermined intervals, and the samples were precipitated by methanol to recover the produced polymer, followed by drying. The polymerization rates at each sampling time were measured.
The same emulsion polymerization as Example 5 was conducted except for using a typical known azoamidine compound, of 2,2'-azobis(2-methylpropionamidine) dihydrochloride as a polymerization initiator.

Setting [6] is: 50° C., polymerization time 1 H.
[7] abbreviates: 50° C., polymerization time 1.5 H.
[8] abbreviates: 50° C., polymerization time 2 H.
Where [9] appears, read: 50° C., polymerization time 3 H.
Where [10] appears, read: 50° C., polymerization time 4 H.
Where [11] appears, read: 50° C., polymerization time 5 H.
[12] abbreviates: 50° C., polymerization time 6 H.

The structures appear in SMILES notation.

As for `CC(C)(N=NC(C)(C)C(=N)NCCC(=O)O)C(=N)NCCC(=O)O.O.O` [Example 1, 2,2'-azobis[N-(2-carboxyethyl)-2-methylpropionamidine] dihydrate], the “10 hours half life temperature” value in series [1] was determined as 57 °C. Moreover, the “solubility in Methanol” value in series [2] (Methanol) stood at 36.9%. The “solubility in Water” value in series [2] is 10.0%. Also, in series [3], the “Decomposition Rate Constant at 50° C.” value came out at 7.3e-06 s⁻¹. Moreover, the “Polymerization Rate(%)” value in series [4] (polymerization time 1 H) is listed as 6.7%; in series [4] (polymerization time 1.5 H), 22.3%; in series [4] (polymerization time 2 H) it was 34.2%; in series [4] (polymerization time 3 H), 53.3%; in series [4] (polymerization time 4 H) it was 64.8%; in series [4] (polymerization time 5 H) it was 70.6%. For the same compound, the “Polymerization Rate(%)” value is 74.7% in series [4] (polymerization time 6 H); 25.2% in series [5] (setting [6]); 51.0% in series [5] (setting [7]); 74.3% in series [5] (setting [8]); 89.2% in series [5] (setting [9]); 93.5% in series [5] (setting [10]). The “Polymerization Rate(%)” value in series [5] (setting [11]) was determined as 94.4%; in series [5] (setting [12]), 95.4%.

`CC(C)(N=NC(C)(C)C(=N)NCC(=O)O)C(=N)NCC(=O)O` [Reference Example 1, 2,2'-azobis(N-carboxymethyl-2-methylpropionamidine)]: the “solubility in Methanol (in words)” value in series [2] (Methanol) was “insoluble”. Besides, the “solubility in Water” value in series [2] is 0.4%. Also, the “Polymerization Rate(%)” value in series [4] (polymerization time 1 H) was determined as 15.8%; in series [4] (polymerization time 1.5 H) it was 21.2%; in series [4] (polymerization time 2 H), 25.0%; in series [4] (polymerization time 3 H), 32.5%; in series [4] (polymerization time 4 H), 37.2%; in series [4] (polymerization time 5 H), 38.3%. Also, the “Polymerization Rate(%)” value in series [4] (polymerization time 6 H) stood at 41.2%.

As to `CC(NC(=N)C(C)(C)N=NC(C)(C)C(=N)NC(C)C(=O)O)C(=O)O` (stereo not drawn) [Reference Example 2, 2,2'-azobis[N-(1-carboxyethyl)-2-methylpropionamidine]], in series [2] (Methanol), the “solubility in Methanol (in words)” value is given as “insoluble”. Also, the “solubility in Water” value in series [2] is on record as 0.8%. Also, the “Polymerization Rate(%)” value turned out to be 19.0% in series [4] (polymerization time 1 H); 24.2% in series [4] (polymerization time 1.5 H); 28.8% in series [4] (polymerization time 2 H); 33.8% in series [4] (polymerization time 3 H); 38.5% in series [4] (polymerization time 4 H); 46.3% in series [4] (polymerization time 5 H). The “Polymerization Rate(%)” value in series [4] (polymerization time 6 H) came out at 47.1%.

As to `CC(C)(N=NC(C)(C)C(=N)N)C(=N)N.Cl.Cl` [Reference Example 3, 2,2'-azobis(2-methylpropionamidine) dihydrochloride], in series [5] (50° C.), the “dead end phenomenon in emulsion polymerization” value is listed as “dead end phenomenon was observed”. The “polymerization rate at 6 hour polymerization and later (in words)” value in series [5] (6 hours and later) was “reduced”. For the same compound, the “Polymerization Rate(%)” value in series [5] (setting [6]) was determined as 32.0%; in series [5] (setting [7]) it was 37.1%; in series [5] (setting [8]), 69.9%; in series [5] (setting [9]) it was 88.4%; in series [5] (setting [10]) it was 91.4%; in series [5] (setting [11]), 93.1%. In addition, in series [5] (setting [12]), the “Polymerization Rate(%)” value came out at 92.2%.
